Reference: ChEMBL document CHEMBL1201862, “PubChem BioAssay data set” (2004)
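Growth conditions: 96-well plates. Treatment: test compound, 48 hours, 5 concentrations. Analysis: linear interpolation between bracketing concentrations; unreached endpoints set to highest concentration. GI50 is the concentration that inhibits growth by half.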 Activity calls are given as the source filed them. Rule as the data show it: active = GI50 up to about 1.1 µM and inactive = higher.

Key:
Assay in all cases: NCI-60 cell line screen, 48 h
[1] = test system: A549
[2] = test system: COLO 205
[3] = test system: EKVX
[4] = test system: HCC 2998
[5] = test system: HOP-62
[6] = test system: K562
[7] = test system: NCI-H226
[8] = test system: OVCAR-4
[9] = test system: OVCAR-5
[10] = test system: OVCAR-8
[11] = test system: PC-3
[12] = test system: SF-268
[13] = test system: SK-MEL-5
[14] = test system: SK-OV-3
[15] = test system: TK-10
[16] = test system: OVCAR-3
[17] = test system: SK-MEL-2
[18] = test system: U-251
[19] = test system: A498
[20] = test system: SN12C

Measured: GI50

N#Cc1nc(-c2ccco2)oc1N
inactive: [1] > 10 µM | [2] > 10 µM | [3] > 10 µM | [4] > 10 µM | [5] > 10 µM | [6] > 10 µM | [7] > 10 µM | [8] > 10 µM | [9] > 10 µM | [10] > 10 µM | [11] > 10 µM | [12] > 10 µM | [13] > 10 µM | [14] > 10 µM | [15] > 10 µM

C[C@@]1(CO)[C@H](O)CC[C@@]2(C)[C@H]1CC[C@H]1C[C@@H]3C[C@@]12CC[C@@]3(O)COC(=O)CN
inactive: [2] 19.1 µM | [3] 16.4 µM | [4] 4.23 µM | [5] 14 µM | [6] 5.55 µM | [16] 58.3 µM | [8] 49.8 µM | [11] 21.3 µM | [12] 9.29 µM | [17] 64.9 µM | [13] 11.2 µM | [14] 39.4 µM | [15] 56.5 µM | [18] 10.6 µM

COc1ccc(/C=C2\NC(=S)N(CN3CCCCC3)C2=O)cc1
inactive: [19] 51.9 µM | [1] 72.1 µM | [2] 35.2 µM | [3] 34.4 µM | [5] > 100 µM | [6] 34.5 µM | [7] 42.2 µM | [16] 71.6 µM | [8] 20 µM | [9] > 100 µM | [10] 15.4 µM | [11] 78.7 µM | [12] 18.2 µM | [17] > 100 µM | [13] 36.1 µM | [14] > 100 µM | [20] > 100 µM | [15] 83.6 µM | [18] 61.7 µM

Nc1nc2c(ncn2Cc2ccc(CO)cc2)c(=O)[nH]1
inactive: [19] > 100 µM | [1] > 100 µM | [2] > 100 µM | [3] > 100 µM | [5] > 100 µM | [6] > 100 µM | [7] > 100 µM | [16] > 100 µM | [8] > 100 µM | [9] > 100 µM | [10] > 100 µM | [11] > 100 µM | [12] > 100 µM | [17] > 100 µM | [13] > 100 µM | [14] > 100 µM | [20] > 100 µM | [15] > 100 µM | [18] > 100 µM

CCCOC(=O)C1C2CCC(O2)C1C(=O)O (stereo not given)
inactive: [19] > 100 µM | [1] > 100 µM | [2] > 100 µM | [3] > 100 µM | [5] > 100 µM | [6] > 100 µM | [7] > 100 µM | [16] > 100 µM | [8] > 100 µM | [9] > 100 µM | [10] > 100 µM | [11] > 100 µM | [12] > 100 µM | [17] > 100 µM | [13] > 100 µM | [14] 61 µM | [20] > 100 µM | [15] > 100 µM | [18] > 100 µM

CC(C)CCCC(C)[C@H]1CCC2[C@@H]3CCC4Cc5nc6c(nc5C[C@]4(C)C3CC[C@@]21C)CC1CC[C@@H]2C(CC[C@@]3(C)C2CC[C@@H]3C(C)CCCC(C)C)[C@@]1(C)C6 (stereo not given in full)
inactive: [19] > 100 µM | [1] > 100 µM | [2] > 100 µM | [3] > 100 µM | [5] > 100 µM | [6] > 100 µM | [7] > 100 µM | [16] > 100 µM | [8] > 100 µM | [9] > 100 µM | [10] > 100 µM | [11] > 100 µM | [12] > 100 µM | [17] > 100 µM | [13] > 100 µM | [14] > 100 µM | [20] > 100 µM | [15] > 100 µM | [18] > 100 µM
